The values below come from ChEMBL document CHEMBL1144793, “Synthesis and characterization of 1,3-dihydro-benzo[b][1,4]diazepin-2-one derivatives: Part 3. New potent non-competitive metabotropic glutamate receptor 2/3 antagonists” (Bioorg Med Chem Lett, 2008).

The target of series [1] is T1, Metabotropic glutamate receptor 2 (Rattus norvegicus, UniProt P31421). Kind of series: Displacement of [3H]LY354740 from rat mGluR2. On the technique in general: In a radioligand displacement assay an active substance lowers the binding of a labelled ligand.
T1 sequence (P31421 whole entry): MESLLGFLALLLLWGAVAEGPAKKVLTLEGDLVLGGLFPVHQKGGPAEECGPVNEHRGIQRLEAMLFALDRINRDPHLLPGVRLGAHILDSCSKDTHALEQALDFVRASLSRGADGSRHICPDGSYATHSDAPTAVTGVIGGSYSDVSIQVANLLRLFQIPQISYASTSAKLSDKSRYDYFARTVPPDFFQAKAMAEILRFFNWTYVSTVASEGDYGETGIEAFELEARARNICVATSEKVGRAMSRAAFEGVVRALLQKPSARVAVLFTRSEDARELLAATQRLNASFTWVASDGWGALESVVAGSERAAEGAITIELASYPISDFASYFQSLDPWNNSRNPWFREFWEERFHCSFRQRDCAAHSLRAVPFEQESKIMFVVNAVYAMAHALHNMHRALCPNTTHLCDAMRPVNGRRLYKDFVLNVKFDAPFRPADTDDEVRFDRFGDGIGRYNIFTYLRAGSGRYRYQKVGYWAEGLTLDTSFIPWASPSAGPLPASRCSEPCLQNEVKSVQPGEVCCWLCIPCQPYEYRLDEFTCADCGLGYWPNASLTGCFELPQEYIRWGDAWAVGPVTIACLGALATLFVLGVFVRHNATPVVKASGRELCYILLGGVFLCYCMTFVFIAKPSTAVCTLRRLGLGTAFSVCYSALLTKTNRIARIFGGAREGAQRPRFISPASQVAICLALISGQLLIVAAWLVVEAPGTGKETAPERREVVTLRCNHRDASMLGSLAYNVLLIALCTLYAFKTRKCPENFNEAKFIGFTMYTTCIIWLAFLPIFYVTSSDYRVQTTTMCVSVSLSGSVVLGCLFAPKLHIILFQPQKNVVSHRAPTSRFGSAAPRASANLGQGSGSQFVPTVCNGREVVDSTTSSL
Series [2] deals with T1, Metabotropic glutamate receptor 2. The series is described as follows: Antagonist activity at rat mGluR2 assessed as blockade of (1S,3R)-ACPD-induced inhibition of forskolin-stimulated cAMP production. Format: functional. For orientation: Changes in cAMP serve as a functional read-out for many G protein-coupled receptors.
Series [3] concerns the target Metabotropic glutamate receptor 3 (Rattus norvegicus, UniProt P31422). The series is described as follows: Antagonist activity at rat mGluR3 expressed in CHO cells assessed as inhibition of glutamate-induced GIRK current. Format: functional, cell-based.
The target in a further series is Cytochrome P450 3A4 (Homo sapiens, UniProt P08684). Kind of series: Inhibition of CYP3A4. Format: ADME.
Chain of Cytochrome P450 3A4 (P08684 whole entry): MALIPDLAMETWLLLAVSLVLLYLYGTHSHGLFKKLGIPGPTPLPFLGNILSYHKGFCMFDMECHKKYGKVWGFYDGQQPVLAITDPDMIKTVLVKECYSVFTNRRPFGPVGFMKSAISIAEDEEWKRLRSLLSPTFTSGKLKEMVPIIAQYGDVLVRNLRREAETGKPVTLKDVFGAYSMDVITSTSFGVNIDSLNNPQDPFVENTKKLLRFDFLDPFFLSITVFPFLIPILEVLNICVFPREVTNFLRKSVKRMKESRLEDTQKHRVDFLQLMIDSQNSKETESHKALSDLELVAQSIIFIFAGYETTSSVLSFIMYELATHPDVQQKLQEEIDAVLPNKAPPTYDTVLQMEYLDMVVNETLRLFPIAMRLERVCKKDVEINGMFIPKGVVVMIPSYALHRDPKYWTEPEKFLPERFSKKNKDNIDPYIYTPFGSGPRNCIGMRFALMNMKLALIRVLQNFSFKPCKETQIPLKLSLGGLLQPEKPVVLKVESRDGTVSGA
Series [4] is described as follows: Ratio of drug level in cerebrospinal fluid to plasma at 10 mg/kg, po after 1.5 hrs. It is filed as ADME, organism-based, CSF/Plasma. The following applies: rat. Details: dose 10 mg/kg, route oral.
Series [5] is described as follows: Ratio of drug level in brain to plasma at 10 mg/kg, po after 1.5 hrs. The following applies: rat. Format: ADME, organism-based. Details: dose 10 mg/kg, route oral.
The target of series [6] is T1, Metabotropic glutamate receptor 2. The series is described as follows: Antagonist activity at rat mGluR2 expressed in CHO cells assessed as inhibition of glutamta-induced GIRK current. It is filed as functional, cell-based.
A short description of series [7]: Binding affinity to GABAA receptor.
Series [8] is described as follows: Plasma concentration in rat at 10 mg/kg, po after 1.5 hrs. Format: ADME, organism-based. The arrangement: dose 10 mg/kg, route oral.
Series [9] can be described thus: Binding affinity to ionotropic glutamate receptor.
The nature of series [10]: Drug level in rat brain at 10 mg/kg, po after 1.5 hrs. The following applies: read-out: Drug uptake. Details: dose 10 mg/kg, route oral. Format: ADME, organism-based.
For a further series, the system named is Mus musculus. The series is described as follows: Spontaneous locomotor activity in po dosed C57BL/6J mouse assessed as reversal of LY-354740-induced hypoactivity. Format: functional.
Series [11] is described as follows: Clearance in rat microsomes. It is filed as ADME, Liver, Microsome.

Activity calls are given as the source filed them. No cut-off for these calls is given here.

Chain of Metabotropic glutamate receptor 3 (P31422 whole entry): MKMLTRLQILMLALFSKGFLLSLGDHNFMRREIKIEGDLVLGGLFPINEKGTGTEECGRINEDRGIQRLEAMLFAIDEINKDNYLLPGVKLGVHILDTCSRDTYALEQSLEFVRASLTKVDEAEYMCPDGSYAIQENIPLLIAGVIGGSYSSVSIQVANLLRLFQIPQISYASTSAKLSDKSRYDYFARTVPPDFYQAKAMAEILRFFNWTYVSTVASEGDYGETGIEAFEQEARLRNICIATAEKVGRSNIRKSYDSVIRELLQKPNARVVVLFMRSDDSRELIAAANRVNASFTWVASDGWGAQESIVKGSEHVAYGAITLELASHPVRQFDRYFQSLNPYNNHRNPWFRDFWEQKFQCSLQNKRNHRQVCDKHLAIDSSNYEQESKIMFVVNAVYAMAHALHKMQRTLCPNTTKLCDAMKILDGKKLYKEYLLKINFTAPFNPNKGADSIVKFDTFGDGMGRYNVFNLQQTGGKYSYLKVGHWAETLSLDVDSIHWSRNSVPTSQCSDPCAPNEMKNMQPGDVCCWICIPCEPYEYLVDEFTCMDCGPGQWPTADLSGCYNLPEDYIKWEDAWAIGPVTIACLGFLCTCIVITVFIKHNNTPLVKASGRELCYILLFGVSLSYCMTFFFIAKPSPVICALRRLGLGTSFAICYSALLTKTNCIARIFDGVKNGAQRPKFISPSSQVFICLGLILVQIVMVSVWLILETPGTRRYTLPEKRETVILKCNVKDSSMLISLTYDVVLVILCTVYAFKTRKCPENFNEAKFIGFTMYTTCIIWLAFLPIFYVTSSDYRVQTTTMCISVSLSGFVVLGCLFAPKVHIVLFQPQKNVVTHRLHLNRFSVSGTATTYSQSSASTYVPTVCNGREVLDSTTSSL

A word on the IC50: it is the midpoint of a concentration-inhibition curve. In the case of `O=C1CC(c2cccc(-n3ccnn3)c2)=Nc2ccc(-c3cc(F)ccc3F)cc2N1`, the IC50 stood at 17 nM in series [1] and 18 nM in series [2].
The corresponding values for `CC(C)CN(C)c1cc2c(cc1C(F)(F)F)NC(=O)CC(c1cccc(-n3ccnn3)c1)=N2` are 11 nM and 14 nM.
Taken in the same sequence, the figures for `CN(C)c1cc2c(cc1C(F)(F)F)NC(=O)CC(c1cccc(-n3ccnn3)c1)=N2` were 38 nM and 184 nM.
The corresponding values for `O=C1CC(c2cccc(-n3ccnc3)c2)=Nc2cc(Cl)c(C(F)(F)F)cc2N1` are 17 nM and 15 nM.
Turning to `O=C1CC(c2cccc(-n3ccnn3)c2)=Nc2ccc(-c3ccc(F)cc3)cc2N1`, the IC50 in series [1] amounted to 31 nM; in [2], 36 nM.
In turn, `O=C1CC(c2cccc(-n3ccnc3)c2)=Nc2ccc(C3CC3)cc2N1` showed an IC50 in series [1] of 210 nM.
For `O=C1CC(c2cccc(-n3ccnn3)c2)=Nc2ccc(C(F)(F)F)cc2N1`, in [1], the IC50 was 92 nM.
Consider `O=C1CC(c2cccc(-n3ccnn3)c2)=Nc2cc(Cl)c(C(F)(F)F)cc2N1`, for which the IC50 turned out to be 27 nM in series [1] and 116 nM in series [2].
Compound `O=C1CC(c2cccc(-n3ccnn3)c2)=Nc2ccc(C(F)F)cc2N1` yielded an IC50 in series [1] of 608 nM.
With `Cc1cc2c(cc1C(F)(F)F)NC(=O)CC(c1cccc(-n3ccnn3)c1)=N2`, the IC50 in series [1] stood at 9 nM; in series [2], 39 nM.
The corresponding values for `CN(C)c1cc2c(cc1C(F)(F)F)NC(=O)CC(c1cccc(-n3ccnc3)c1)=N2` are 9 nM and 52 nM.
Consider `O=C1CC(c2cccc(-n3ccnn3)c2)=Nc2ccc(OCC(F)(F)F)cc2N1`, for which, in series [1], the IC50 is 70 nM.
On the same count and under the same terms, the figure for `O=C1CC(c2cccc(-n3ccnc3)c2)=Nc2ccc(-c3cccc(F)c3)cc2N1` is 25 nM.
One may read the Kp as tissue or fluid exposure divided by exposure in the circulation. The ED50 is the dose at which the effect has come halfway, by size or by number of responders. Consider `O=C1CC(c2cccc(-n3ccnn3)c2)=Nc2ccc(-c3ccccc3F)cc2N1`, for which the IC50 in series [3] was 42 nM; on Cytochrome P450 3A4 it was 4300 nM; in [1], 16 nM; in series [2] it was 37 nM; in series [6], 22 nM. Also, the Kp at 1.5 h in [4] amounted to 0.5; in series [5] it was 0.9. The outcome in [7] and in series [9] was inactive. In addition, the figures for the concentration at 1.5 h in [8] and in [10] were 1420 ng/mL and 1060 ng/mL, respectively. Moreover, the ED50 in the series with Mus musculus came out at 3.3 mg/kg.
As to `O=C1CC(c2cccc(-n3ccnc3)c2)=Nc2ccc(-c3cc(F)ccc3F)cc2N1`, the concentration for half-maximal inhibition (IC50) stood at 7 nM in [1] and 17 nM in series [2].
The corresponding values for `CC(C)CNc1cc2c(cc1C(F)(F)F)NC(=O)CC(c1cccc(-n3ccnn3)c1)=N2` are 42 nM and 268 nM.
Taken in the same sequence, the figures for `O=C1CC(c2cccc(-n3ccnc3)c2)=Nc2ccc(-c3ccccc3)cc2N1` were 39 nM and 47 nM.
Taken in the same sequence, the figures for `COc1cc2c(cc1C(F)(F)F)NC(=O)CC(c1cccc(-n3ccnn3)c1)=N2` were 29 nM and 74 nM.
With `CC(C)c1ccc2c(c1)NC(=O)CC(c1cccc(-n3ccnn3)c1)=N2`, the IC50 in [1] was 466 nM.
`O=C1CC(c2cccc(-n3ccnc3)c2)=Nc2cc(O)c(C#Cc3ccc(F)cc3)cc2N1`: in series [6], the IC50 stood at 24 nM.
As a reminder, the CLint scaled is the capacity of the preparation to metabolise the compound, expressed as a volume cleared per time. A lower CLint scaled goes with greater metabolic stability. For `O=C1CC(c2cccc(-n3ccnc3)c2)=Nc2cc(O)c(-c3ccccc3F)cc2N1`, the IC50 in series [3] turned out to be 122 nM; in [1], 22 nM; in series [6] it was 35 nM. The compound also registered a CLint scaled in [11] of 100 mL/min/kg.
Turning to `Cc1cc2c(cc1C(F)(F)F)NC(=O)CC(c1cccc(-n3ccnc3)c1)=N2`, the IC50 in series [1] came to 12 nM; in [2] it was 19 nM.
The corresponding values for `CCOc1cc2c(cc1C(F)(F)F)NC(=O)CC(c1cccc(-n3ccnn3)c1)=N2` are 7 nM and 34 nM.
In the case of `O=C1CC(c2cccc(-n3ccnc3)c2)=Nc2ccc(C(F)(F)F)cc2N1`, the IC50 in series [1] was 43 nM.
Consider `CC(C)CNc1cc2c(cc1C(F)(F)F)NC(=O)CC(c1cccc(-n3ccnc3)c1)=N2`, for which the IC50 in [1] worked out at 19 nM; in series [2], 73 nM.
For the compound `O=C1CC(c2cccc(-n3ccnc3)c2)=Nc2ccc(-c3ccc(F)cc3)cc2N1`, the IC50 in [3] came to 17 nM; in series [1], 17 nM; in series [2], 24 nM; in series [6], 299 nM.
Regarding `O=C1CC(c2cccc(-n3ccnn3)c2)=Nc2ccc(Br)cc2N1`, in series [1], the IC50 was found to be 130 nM.
Still for that read-out and setting: the figure for `O=C1CC(c2cccc(-n3ccnn3)c2)=Nc2ccc(Cl)cc2N1` is 60 nM.
As for `CCc1cc2c(cc1C(F)(F)F)NC(=O)CC(c1cccc(-n3ccnc3)c1)=N2`, the values for the IC50 in [1] and in [2] were 4 nM and 10 nM, respectively.
Regarding `O=C1CC(c2cccc(-n3ccnc3)c2)=Nc2ccc(Br)cc2N1`, the IC50 in series [1] is 72 nM.
In the case of `O=C1CC(c2cccc(-n3ccnc3)c2)=Nc2ccc(-c3ccccc3F)cc2N1`, the IC50 in series [3] came to 33 nM; in series [1] it was 12 nM; in series [2], 27 nM; in series [6], 11 nM. Also, the Kp at 1.5 h in [5] came out at 0.5. Besides, the concentration at 1.5 h in [8] turned out to be 2660 ng/mL; in series [10], 1340 ng/mL. In addition, the ED50 in the series with Mus musculus was found to be 12.5 mg/kg.
